Experimental data reported in patent publication US9982005B2, “Macrolides and methods of their preparation and use” (President and Fellows of Harvard College, priority 2013, dated 2018).
≈ marks a conversion by molar mass, not a printed value. Like-named read-outs stand apart in the source and are kept apart here.

Assays:
Assay type in all cases: cell-based
[1] = test system: Spn1533 S. pneumoniae ermB positive mefA positive; experiment: broth dilution MIC, S. pneumoniae Spn1533; conditions: Streptococcus pneumoniae
Excerpt: (§1) We have collected MIC data for a total of 50 novel macrolides that this platform has produced against over 21 unique strains of B. subtilis, E. coli, S. aureus, S. pneumoniae, and H. influenzae, including several multidrug-resistant strains, with a special focus on macrolide resistant mechanisms (vide supra). Azithromycin was included as a control macrolide. CLSI standard procedures for broth dilution MIC determination were used. […] These genotypes can be constitutive or inducible. The finding that C4-epi (unnatural) isomers of the “azaketolide” macrolide class have enhanced activities relative to C4 natural isomers is very exciting.

[2] = test system: EC107 E. coli ATCC25922; experiment: broth dilution MIC, E. coli EC107; conditions: Escherichia coli, read-out: MIC
How it was run: (§2)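 Azithromycin included as reference macrolide; values follow CLSI broth dilution MIC methodology.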

[3] = test system: SA418 S. aureus ermA negative msrA positive; experiment: broth dilution MIC, S. aureus SA418; conditions: Staphylococcus aureus
Excerpt: as §1

[4] = test system: EC882 E. coli imp; experiment: broth dilution MIC, E. coli EC882
How it was run: as §2

[5] = test system: SA183 S. aureus ermA positive msrA unknown; experiment: broth dilution MIC, S. aureus SA183; conditions: Staphylococcus aureus
Excerpt: as §1

[6] = test system: Spn160 S. pneumoniae ermB unknown mefA positive; experiment: broth dilution MIC, S. pneumoniae Spn160; conditions: Streptococcus pneumoniae
Excerpt: as §1

[7] = test system: HI281 H. influenzae; experiment: broth dilution MIC, H. influenzae HI281; conditions: Haemophilus influenzae
Excerpt: as §1

[8] = test system: SA506 S. aureus ermA positive msrA unknown; experiment: broth dilution MIC, S. aureus SA506; conditions: Staphylococcus aureus
Excerpt: as §1

[9] = test system: SA1707 S. aureus ermA negative msrA positive; experiment: broth dilution MIC, S. aureus SA1707; conditions: Staphylococcus aureus
Excerpt: as §1

[10] = test system: BS1723 B. subtilis BS168 WT wild type; experiment: broth dilution MIC, B. subtilis BS1723; conditions: Bacillus subtilis, BS1723 B. subtilis BS168 WT wild type; read-out: MIC
How it was run: as §2

[11] = test system: EC878 E. coli tolC; experiment: broth dilution MIC, E. coli EC878; conditions: Escherichia coli
How it was run: as §2

[12] = test system: Spn1537 S. pneumoniae ermB positive mefA positive; experiment: broth dilution MIC, S. pneumoniae Spn1537; conditions: Streptococcus pneumoniae
Excerpt: as §1

[13] = test system: Spn1509 S. pneumoniae ermB positive mefA negative; experiment: broth dilution MIC, S. pneumoniae Spn1509; conditions: Streptococcus pneumoniae; Spn1509 S. pneumoniae ermB positive mefA negative; read-out: MIC
Excerpt: as §1

[14] = test system: HI175 H. influenzae ATCC49247; experiment: broth dilution MIC, H. influenzae HI175; conditions: Haemophilus influenzae
Excerpt: as §1

[15] = test system: SA101 S. aureus ATCC29213; experiment: broth dilution MIC, S. aureus SA101; conditions: Staphylococcus aureus, ATCC29213, SA101 S. aureus ATCC29213; read-out: MIC
How it was run: as §2

[16] = test system: SA1708 S. aureus ermA positive msrA negative; experiment: broth dilution MIC, S. aureus SA1708; conditions: Staphylococcus aureus
Excerpt: as §1

[17] = test system: BS1725 B. subtilis ermC; experiment: broth dilution MIC, B. subtilis BS1725; conditions: Bacillus subtilis, BS1725 B. subtilis ermC (+ery)
How it was run: as §2

[18] = test system: SA557 S. aureus ermA unknown msrA positive; experiment: broth dilution MIC, S. aureus SA557; conditions: Staphylococcus aureus; SA557 S. aureus ermA unknown msrA positive; read-out: MIC
Excerpt: as §1

[19] = test system: Spn 106 S. pneumonia ATCC49619; experiment: broth dilution MIC, S. pneumoniae Spn 106; conditions: Streptococcus pneumoniae
Excerpt: as §1

[20] = test system: S. aureus strains; experiment: MIC against S. aureus strains (Table M7); conditions: Staphylococcus aureus
How it was run: as §2

[21] = test system: K. pneumoniae strains; experiment: MIC against K. pneumoniae strains (Table M8); conditions: Klebsiella pneumoniae, K. pneumoniae 10031
[22] = test system: A. baumannii strains; experiment: MIC against A. baumannii strains (Table M8); conditions: Acinetobacter baumannii, BAA747, A. baumannii BAA747-1
[23] = test system: S. pneumoniae strains; experiment: MIC against S. pneumoniae strains (Tables M7, M8); conditions: Streptococcus pneumoniae
Excerpt: CLSI standard procedures for broth dilution MIC determination were used. […] These genotypes can be constitutive or inducible.

[24] = test system: Spn1427 S. pneumoniae ermB positive mefA negative; experiment: broth dilution MIC, S. pneumoniae Spn1427; conditions: Streptococcus pneumoniae
Excerpt: as §1

[25] = test system: E. coli strains; experiment: MIC against E. coli strains (Table M7); conditions: Escherichia coli, ATCC25922, E. coli ATCC 25922
How it was run: as §2

[26] = test system: H. influenzae strains; experiment: MIC against H. influenzae strains (Table M8); conditions: Haemophilus influenzae
How it was run: as §2

[27] = test system: E. faecalis strains; experiment: MIC against E. faecalis strains (Table M8); conditions: Enterococcus faecalis, E. faecalis 29212
[28] = test system: S. aureus (Newman, clinical isolate); experiment: MIC, S. aureus Newman; conditions: Staphylococcus aureus, S. aureus (Newman, clinical isolate), round 1
Excerpt: as §1

[29] = test system: E. coli (MC4100); experiment: MIC, E. coli MC4100; conditions: Escherichia coli, round 1, read-out: MIC
Excerpt: as §1

[30] = Spn160 S. pneumoniae ermB unknown mefA positive, read-out: MIC
[31] = Spn 106 S. pneumonia ATCC49619, read-out: MIC
[32] = ATCC29213, S. aureus ATCC 29213, read-out: MIC S. aureus (ATCC 29213)
[33] = S. aureus 506, read-out: MIC S. aureus (506)
[34] = S. aureus 1708, read-out: MIC S. aureus (1708)
[35] = USA300, S. aureus USA300, read-out: MIC S. aureus (USA300)
[36] = S. pneumoniae 160, read-out: MIC S. pneumonae (160)
[37] = S. pneumoniae 1509, read-out: MIC S. pneumoniae (1509)
[38] = S. pneumoniae 1533, read-out: MIC S. pneumoniae (1533)
[39] = S. pneumoniae 1537, read-out: MIC S. pneumoniae (1537)
[40] = read-out: MIC S. pneumoniae (49619)
[41] = H. influenzae 49247, read-out: MIC H. influenzae (49247)
[42] = H. influenzae 49766, read-out: MIC H. influenzae (49766)

Compound	MIC [2] [µg/mL]	MIC [3] [µg/mL]	MIC [5] [µg/mL]	MIC [7] [µg/mL]	MIC [8] [µg/mL]	MIC [9] [µg/mL]	MIC [10] [µg/mL]	MIC [11] [µg/mL]	MIC [12] [µg/mL]	MIC [13] [µg/mL]	MIC [14] [µg/mL]	MIC [15] [µg/mL]	MIC [16] [µg/mL]	MIC [17] [µg/mL]	MIC [18] [µg/mL]	MIC [19, 31] [µg/mL]	MIC ([4]; Escherichia coli) [µg/mL]	MIC [20, 32] [µg/mL]	MIC [20, 33] [µg/mL]	MIC [20, 34] [µg/mL]	further results
CC[C@H]1OC(=O)C(C)(F)C(=O)[C@@H](C)[C@@H](O[C@@H]2OC(C)CC(N(C)C)C2O)[C@](C)(OC)C[C@@H](C)CN(C)[C@H](C)[C@H]2N(CCCCn3cc(-c4nccs4)nn3)C(=O)O[C@]12C (stereo partly drawn) [FSM-20705]	> 32	16 (≈ 18.8 µM)	> 32	> 32	> 32	32 (≈ 37.6 µM)	8 (≈ 9.39 µM)	2 (≈ 2.35 µM)	> 32	4 to 16 (≈ 4.69 to 18.8 µM)	16 to 32 (≈ 18.8 to 37.6 µM)	8 (≈ 9.39 µM)	16 (≈ 18.8 µM)	> 32	8 (≈ 9.39 µM)	0.125 to 0.25 (≈ 0.147 to 0.293 µM)	–	–	–	–	MIC [1]: > 32 µg/mL; MIC [4]: 0.25 µg/mL (≈ 0.293 µM); MIC [6, 30]: 0.5 to 1 µg/mL (≈ 0.587 to 1.17 µM)
CC[C@H]1OC(=O)[C@H](C)C(=O)[C@H](C)[C@@H](O[C@@H]2OC(C)CC(N(C)C)C2O)[C@](C)(OC)C[C@@H](C)CN[C@H](C)[C@H]2N(CCCCn3cc(-c4ccccn4)nn3)C(=O)O[C@]12C (stereo partly drawn) [FSM-20706]	8 (≈ 9.83 µM)	2 (≈ 2.46 µM)	> 32	4 (≈ 4.91 µM)	> 32	4 (≈ 4.91 µM)	1 (≈ 1.23 µM)	0.5 (≈ 0.614 µM)	> 32	0.5 to 2 (≈ 0.614 to 2.46 µM)	0.5 to 2 (≈ 0.614 to 2.46 µM)	2 (≈ 2.46 µM)	4 (≈ 4.91 µM)	16 (≈ 19.7 µM)	2 (≈ 2.46 µM)	0.0156 to 0.0312 (≈ 0.0192 to 0.0383 µM)	0.0625 (≈ 0.0768 µM)	2 (≈ 2.46 µM)	> 32	1 (≈ 1.23 µM)	MIC [20, 35]: 2 µg/mL (≈ 2.46 µM); MIC [6]: 0.0625 to 0.125 µg/mL (≈ 0.0768 to 0.154 µM); MIC [21]: 4 µg/mL (≈ 4.91 µM); MIC [22]: 32 µg/mL (≈ 39.3 µM); MIC [23, 36]: 0.125 µg/mL (≈ 0.154 µM); MIC [23, 37]: 4 µg/mL (≈ 4.91 µM); MIC [23, 38]: > 32 µg/mL; MIC [23, 39]: > 32 µg/mL; MIC [23, 40]: ≤ 0.0625 µg/mL; MIC [24]: > 32 µg/mL; MIC [25]: 8 µg/mL (≈ 9.83 µM); MIC [26, 41]: 0.5 µg/mL (≈ 0.614 µM); MIC [26, 42]: 2 µg/mL (≈ 2.46 µM); MIC [27]: 0.25 µg/mL (≈ 0.307 µM)
CC[C@H]1OC(=O)[C@H](C)C(=O)[C@H](C)[C@@H](O[C@@H]2OC(C)CC(N(C)C)C2O)[C@](C)(OC)C[C@@H](C)CN[C@H](C)[C@H]2N(CCCCn3cc(-c4cccc(N)n4)nn3)C(=O)O[C@]12C (stereo partly drawn) [FSM-20715]	4 (≈ 4.82 µM)	2 (≈ 2.41 µM)	> 32	4 (≈ 4.82 µM)	> 32	2 (≈ 2.41 µM)	1 (≈ 1.21 µM)	0.5 (≈ 0.603 µM)	> 32	0.5 to 2 (≈ 0.603 to 2.41 µM)	2 (≈ 2.41 µM)	1 to 2 (≈ 1.21 to 2.41 µM)	2 (≈ 2.41 µM)	16 (≈ 19.3 µM)	1 (≈ 1.21 µM)	–	0.0312 (≈ 0.0376 µM)	1 (≈ 1.21 µM)	> 32	2 (≈ 2.41 µM)	MIC [1]: > 32 µg/mL; MIC [20, 35]: 2 µg/mL (≈ 2.41 µM); MIC [6, 30]: 0.125 to 0.25 µg/mL (≈ 0.151 to 0.302 µM); MIC [21]: 2 µg/mL (≈ 2.41 µM); MIC [22]: 8 µg/mL (≈ 9.65 µM); MIC [23, 36]: 0.25 µg/mL (≈ 0.302 µM); MIC [23, 37]: 2 µg/mL (≈ 2.41 µM); MIC [23, 38]: > 32 µg/mL; MIC [23, 39]: > 32 µg/mL; MIC ([23]; S. pneumoniae 49619, read-out: MIC S. pneumoniae (49619)): 0.125 µg/mL (≈ 0.151 µM); MIC [25]: 8 µg/mL (≈ 9.65 µM); MIC [26, 41]: 0.5 µg/mL (≈ 0.603 µM); MIC [26, 42]: 2 µg/mL (≈ 2.41 µM); MIC [27]: 0.25 µg/mL (≈ 0.302 µM); MIC ([19]; ATCC49619): 0.0156 to 0.0312 µg/mL (≈ 0.0188 to 0.0376 µM)
CC[C@H]1OC(=O)C(C)(F)C(=O)[C@H](C)[C@@H](O[C@@H]2OC(C)CC(N(C)C)C2O)[C@](C)(OC)C[C@@H](C)CN[C@H](C)[C@H]2N(CCCCn3cc(-c4ccccn4)nn3)C(=O)O[C@]12C (stereo partly drawn) [FSM-20738]	8 (≈ 9.62 µM)	1 (≈ 1.2 µM)	> 32	4 to 32 (≈ 4.81 to 38.5 µM)	> 32	1 (≈ 1.2 µM)	0.25 (≈ 0.3 µM)	1 (≈ 1.2 µM)	> 32	0.5 to 8 (≈ 0.601 to 9.62 µM)	0.5 to 8 (≈ 0.601 to 9.62 µM)	0.5 to 1 (≈ 0.601 to 1.2 µM)	2 (≈ 2.4 µM)	4 (≈ 4.81 µM)	1 (≈ 1.2 µM)	0.0156 to 0.25 (≈ 0.0187 to 0.3 µM)	0.0625 (≈ 0.0751 µM)	0.5 (≈ 0.601 µM)	> 32	0.5 (≈ 0.601 µM)	MIC [28]: 1 µg/mL (≈ 1.2 µM); MIC [20, 35]: 1 µg/mL (≈ 1.2 µM); MIC [6]: 0.0625 to 1 µg/mL (≈ 0.0751 to 1.2 µM); MIC [21]: 4 µg/mL (≈ 4.81 µM); MIC [22]: 32 µg/mL (≈ 38.5 µM); MIC [23, 37]: 2 µg/mL (≈ 2.4 µM); MIC [23, 38]: > 32 µg/mL; MIC [23, 39]: > 32 µg/mL; MIC ([23]; read-out: MIC S. pneumonae (160)): ≤ 0.0625 µg/mL; MIC [23, 40]: ≤ 0.0625 µg/mL; MIC [24]: > 32 µg/mL; MIC [25]: 8 µg/mL (≈ 9.62 µM); MIC [29]: 8 µg/mL (≈ 9.62 µM); MIC [26, 41]: 0.5 µg/mL (≈ 0.601 µM); MIC [26, 42]: 4 µg/mL (≈ 4.81 µM); MIC [27]: 0.125 µg/mL (≈ 0.15 µM)
